The source of these data is patent US8153821B2, “Compounds” (priority 2008, dated 2012).

Bounds are passed on as bounds.

Data set [1] addresses T1, rat native α4β2 receptors (Rattus norvegicus, UniProt P09483+P12390).
T1 construct: rat native α4β2 receptors in rat cortical membranes; from tissue; host or cells: rat cerebral cortex (female Sprague-Dawley)
Nature of the data set: Radioligand binding, rat native α4β2 in rat cortical membranes. As for the experimental part:
Preparation of membranes from rat cortex: Rats (female, Sprague-Dawley), weighing 150-250 g, were maintained on a 12 h light/dark cycle and were allowed free access to water and food supplied by PMI Nutrition International, Inc. Animals were anesthetized with 70% CO2, and then decapitated. Brains were removed and placed on an ice-cold platform. The cerebral cortex was removed and placed in 20 volumes (weight:volume) of ice-cold preparative buffer (137 mM NaCl, 10.7 mM KCl, 5.8 mM KH2PO4, 8 mM Na2HPO4, 20 mM HEPES (free acid), 5 mM iodoacetamide, 1.6 mM EDTA, pH 7.4); PMSF, dissolved in methanol to a final concentration of 100 μM, was added and the suspension was homogenized by Polytron. […]
Assay. […] Protein concentrations were determined using a Pierce BCA Protein Assay Kit, with bovine serum albumin as the standard (Pierce Chemical Company, Rockford, Ill.).
Incubation was terminated by rapid filtration on a multi-manifold tissue harvester (Brandel, Gaithersburg, Md.) using GF/B filters presoaked in 0.33% polyethyleneimine (w/v) to reduce non-specific binding. […] Filters were then counted to determine radioactivity bound to the membranes by liquid scintillation counting (2200CA Tri-Carb LSC, Packard Instruments, 50% efficiency or Wallac Trilux 1450 MicroBeta, 40% efficiency, Perkin Elmer).
Data were expressed as disintegrations per minute (DPMs). […]

In data set [2] the target is T2, human native muscle-type nicotinic receptors (likely α1β1γδ) (Homo sapiens, UniProt P02708+P07510+Q07001).
T2 construct: human native muscle-type nicotinic receptors (likely α1β1γδ); endogenous in cells; host or cells: TE-671 (TE671/RD)
Put plainly: [3H]epibatidine binding, TE-671 membranes.

The test system of data set [3] is neuronal nicotinic receptors (α-BnTx insensitive). Put plainly: Multiple receptor screening assay, nicotinic receptor. The class given is binding. Particulars: single concentration of 10 μM. As to the method: (R)-3-((E)-2-(Pyrrolidin-3-yl)vinyl)-5-(tetrahydropyran-4-yloxy)pyridine or a salt thereof was tested for selectivity against a panel of 65 receptors.
The target of another data set is T3, hERG (Homo sapiens, UniProt Q12809).
T3 construct: expressed in transfected cells; host or cells: HEK-239 (so in the source)
Put plainly: cell-based.

For another data set, the target named is CYP1A2 (Homo sapiens, UniProt P05177). Nature of the data set: biochemical. The class given is in vitro ADME. As for the experimental part:
(§1) Inhibition of CYP1A2, CYP2C9, CYP2C19, CYP2D6 and CYP3A4 catalytic activity by (R)-3-((E)-2-(pyrrolidin-3-yl)vinyl)-5-(tetrahydropyran-4-yloxy)pyridine or a slat thereof was assessed using a fluorogenic CYP assay. Probe substrates which fluoresce upon CYP catalyzed oxidation were used to evaluate the degree of inhibition of the test substrate. A single concentration of each probe substrate (at approximately the apparent Km value) and two different concentrations of (R)-3-((E)-2-(pyrrolidin-3-yl)vinyl)-5-(tetrahydropyran-4-yloxy)pyridine hemigalactarate (2 and 20 μM) were tested in duplicate. Fluorescence intensity at selected wavelengths was used as a measure of enzyme activity. Decreased fluorescence in the presence of (R)-3-((E)-2-(pyrrolidin-3-yl)vinyl)-5-(tetrahydropyran-4-yloxy)pyridine or a sat thereof was an indication of inhibition. […] Duplicate samples were run alongside the positive and negative controls. Incubation of test samples was performed at 37° C. Experimental parameters are outlined in Table 2.

Another data set has as its target CYP2C19 (Homo sapiens, UniProt P33261). Nature of the data set: biochemical. The class given is in vitro ADME. As to the method: as §1
The target of a further data set is CYP2C9 (Homo sapiens, UniProt P11712). Put plainly: biochemical. The data set is classed as in vitro ADME. As for the experimental part:
as §1

Data set [4] has as its target T4, CYP2D6 (Homo sapiens, UniProt P10635). Nature of the data set: biochemical. The class given is in vitro ADME. As for the experimental part:
as §1

Data set [5] has as its target T5, CYP3A4 (Homo sapiens, UniProt P08684). Put plainly: biochemical. The class given is in vitro ADME. As for the experimental part: as §1
Data set [6] has as its target T5, CYP3A4. The data set is classed as in vitro ADME.
For data set [7], the target named is T4, CYP2D6. The class given is in vitro ADME.
Another data set addresses CYP2B6 (Homo sapiens, UniProt P20813). The data set is classed as in vitro ADME.
The conditions of data set [8]: human. The source says: Therefore any variation of (R)-3-((E)-2-(pyrrolidin-3-yl)vinyl)-5-(tetrahydropyran-4-yloxy)pyridine or a salt thereof metabolism in human due to CYP polymorphism is expected to be less than 2 fold due to the significant renal clearance and low hepatic clearance.

T5 sequence (P08684 whole entry): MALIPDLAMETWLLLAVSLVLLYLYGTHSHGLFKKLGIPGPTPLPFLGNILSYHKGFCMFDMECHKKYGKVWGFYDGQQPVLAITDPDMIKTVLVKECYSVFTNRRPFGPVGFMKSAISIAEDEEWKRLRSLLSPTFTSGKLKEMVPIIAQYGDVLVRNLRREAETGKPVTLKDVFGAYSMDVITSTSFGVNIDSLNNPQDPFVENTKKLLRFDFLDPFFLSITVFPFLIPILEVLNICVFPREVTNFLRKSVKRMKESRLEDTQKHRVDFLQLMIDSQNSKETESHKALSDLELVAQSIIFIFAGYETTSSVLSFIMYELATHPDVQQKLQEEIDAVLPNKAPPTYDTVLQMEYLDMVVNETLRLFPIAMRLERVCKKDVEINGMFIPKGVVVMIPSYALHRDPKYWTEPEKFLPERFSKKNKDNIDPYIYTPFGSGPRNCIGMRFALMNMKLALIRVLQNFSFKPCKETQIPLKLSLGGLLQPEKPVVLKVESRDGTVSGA
T4 sequence (P10635 whole entry): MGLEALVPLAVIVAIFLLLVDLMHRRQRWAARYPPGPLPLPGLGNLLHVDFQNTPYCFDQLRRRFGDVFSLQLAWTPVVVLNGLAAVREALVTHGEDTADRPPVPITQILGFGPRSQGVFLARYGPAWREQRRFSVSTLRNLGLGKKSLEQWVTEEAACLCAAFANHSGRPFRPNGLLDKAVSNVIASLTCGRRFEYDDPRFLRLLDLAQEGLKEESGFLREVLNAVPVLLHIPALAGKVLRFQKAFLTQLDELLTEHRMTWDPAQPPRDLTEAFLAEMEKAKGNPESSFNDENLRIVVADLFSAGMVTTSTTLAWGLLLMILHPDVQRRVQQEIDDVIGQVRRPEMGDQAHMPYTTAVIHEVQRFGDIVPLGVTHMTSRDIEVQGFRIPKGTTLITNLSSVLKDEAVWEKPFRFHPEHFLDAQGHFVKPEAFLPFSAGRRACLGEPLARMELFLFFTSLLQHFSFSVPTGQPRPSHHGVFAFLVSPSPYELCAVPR
CYP2C9, sequence (P11712 whole entry): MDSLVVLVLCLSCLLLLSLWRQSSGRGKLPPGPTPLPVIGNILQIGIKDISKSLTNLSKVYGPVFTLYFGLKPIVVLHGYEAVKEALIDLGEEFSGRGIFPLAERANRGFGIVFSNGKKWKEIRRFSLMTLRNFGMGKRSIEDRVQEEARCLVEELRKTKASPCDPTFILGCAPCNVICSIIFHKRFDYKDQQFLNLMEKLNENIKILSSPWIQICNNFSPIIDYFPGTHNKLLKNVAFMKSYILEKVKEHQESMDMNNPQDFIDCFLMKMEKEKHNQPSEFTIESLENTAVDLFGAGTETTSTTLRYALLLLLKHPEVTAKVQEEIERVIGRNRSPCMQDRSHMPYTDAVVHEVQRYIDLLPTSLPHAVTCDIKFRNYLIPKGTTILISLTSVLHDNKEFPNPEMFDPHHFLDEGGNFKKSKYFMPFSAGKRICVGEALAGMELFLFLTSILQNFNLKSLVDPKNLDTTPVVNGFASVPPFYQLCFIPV
T2 sequence (P07510 23-517): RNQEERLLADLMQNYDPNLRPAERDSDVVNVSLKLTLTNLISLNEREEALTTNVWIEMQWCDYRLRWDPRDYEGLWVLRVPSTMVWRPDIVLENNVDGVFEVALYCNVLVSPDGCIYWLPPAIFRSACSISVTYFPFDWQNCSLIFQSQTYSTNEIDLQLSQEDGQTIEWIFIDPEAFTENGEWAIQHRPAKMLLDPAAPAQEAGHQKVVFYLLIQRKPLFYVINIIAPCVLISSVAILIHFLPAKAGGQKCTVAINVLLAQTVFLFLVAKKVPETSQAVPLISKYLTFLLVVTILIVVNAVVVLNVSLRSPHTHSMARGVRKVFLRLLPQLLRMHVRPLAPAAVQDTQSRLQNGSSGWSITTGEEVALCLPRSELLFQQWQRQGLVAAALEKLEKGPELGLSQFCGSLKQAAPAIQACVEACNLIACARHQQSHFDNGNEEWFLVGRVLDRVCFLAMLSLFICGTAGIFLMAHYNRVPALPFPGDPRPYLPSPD
T2 sequence (Q07001 22-517): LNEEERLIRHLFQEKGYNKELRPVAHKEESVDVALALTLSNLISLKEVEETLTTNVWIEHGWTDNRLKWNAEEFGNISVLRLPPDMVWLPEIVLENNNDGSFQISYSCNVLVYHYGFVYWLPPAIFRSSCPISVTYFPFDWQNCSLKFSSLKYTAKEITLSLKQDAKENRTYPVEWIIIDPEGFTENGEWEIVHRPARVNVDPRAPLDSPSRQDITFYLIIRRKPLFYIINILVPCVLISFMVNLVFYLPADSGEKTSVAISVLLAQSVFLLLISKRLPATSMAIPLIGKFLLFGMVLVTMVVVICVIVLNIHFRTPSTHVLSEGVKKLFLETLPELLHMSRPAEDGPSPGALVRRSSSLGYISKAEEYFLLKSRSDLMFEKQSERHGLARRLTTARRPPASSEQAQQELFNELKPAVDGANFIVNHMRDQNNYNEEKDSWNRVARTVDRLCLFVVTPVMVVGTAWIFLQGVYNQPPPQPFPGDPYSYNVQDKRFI
T2 sequence (P02708 21-457): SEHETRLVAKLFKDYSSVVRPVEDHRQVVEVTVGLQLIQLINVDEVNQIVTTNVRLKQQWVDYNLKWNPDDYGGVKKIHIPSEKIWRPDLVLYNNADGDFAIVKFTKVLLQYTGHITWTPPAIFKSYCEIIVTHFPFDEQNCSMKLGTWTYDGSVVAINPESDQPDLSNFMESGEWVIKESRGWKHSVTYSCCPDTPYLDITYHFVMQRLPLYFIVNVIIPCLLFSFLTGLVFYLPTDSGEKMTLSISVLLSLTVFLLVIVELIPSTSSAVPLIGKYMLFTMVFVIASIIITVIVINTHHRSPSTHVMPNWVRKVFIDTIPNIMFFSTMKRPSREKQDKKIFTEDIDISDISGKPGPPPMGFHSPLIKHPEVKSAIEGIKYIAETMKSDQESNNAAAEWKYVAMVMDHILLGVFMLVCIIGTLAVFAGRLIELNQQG
T2 sequence (P11230 24-501, further chain): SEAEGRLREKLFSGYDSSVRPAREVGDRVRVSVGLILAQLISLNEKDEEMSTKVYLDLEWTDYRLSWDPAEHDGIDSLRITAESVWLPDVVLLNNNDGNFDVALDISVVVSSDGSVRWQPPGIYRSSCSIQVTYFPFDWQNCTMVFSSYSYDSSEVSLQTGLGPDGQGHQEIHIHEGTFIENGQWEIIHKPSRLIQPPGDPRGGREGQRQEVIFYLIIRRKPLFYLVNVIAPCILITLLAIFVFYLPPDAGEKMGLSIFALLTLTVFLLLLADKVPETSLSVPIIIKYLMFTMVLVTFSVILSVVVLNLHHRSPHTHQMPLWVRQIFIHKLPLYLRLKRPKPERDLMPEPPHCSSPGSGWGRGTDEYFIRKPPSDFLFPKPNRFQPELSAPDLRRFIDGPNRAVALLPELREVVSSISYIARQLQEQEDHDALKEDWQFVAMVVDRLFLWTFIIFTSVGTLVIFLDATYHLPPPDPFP
CYP2C19, sequence (P33261 whole entry): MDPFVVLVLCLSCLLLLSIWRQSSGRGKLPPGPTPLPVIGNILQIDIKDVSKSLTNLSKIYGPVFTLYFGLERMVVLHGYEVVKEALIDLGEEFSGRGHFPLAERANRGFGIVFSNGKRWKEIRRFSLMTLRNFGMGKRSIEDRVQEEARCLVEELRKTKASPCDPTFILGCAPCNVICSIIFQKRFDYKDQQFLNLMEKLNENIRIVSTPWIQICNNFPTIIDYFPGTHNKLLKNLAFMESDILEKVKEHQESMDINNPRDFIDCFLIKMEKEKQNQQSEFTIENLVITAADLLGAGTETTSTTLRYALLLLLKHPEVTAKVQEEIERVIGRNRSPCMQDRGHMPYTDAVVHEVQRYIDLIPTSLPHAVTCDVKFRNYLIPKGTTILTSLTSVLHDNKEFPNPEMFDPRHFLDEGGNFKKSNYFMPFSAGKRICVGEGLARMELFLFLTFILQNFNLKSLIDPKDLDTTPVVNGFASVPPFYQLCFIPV
T1 sequence (P09483 31-630): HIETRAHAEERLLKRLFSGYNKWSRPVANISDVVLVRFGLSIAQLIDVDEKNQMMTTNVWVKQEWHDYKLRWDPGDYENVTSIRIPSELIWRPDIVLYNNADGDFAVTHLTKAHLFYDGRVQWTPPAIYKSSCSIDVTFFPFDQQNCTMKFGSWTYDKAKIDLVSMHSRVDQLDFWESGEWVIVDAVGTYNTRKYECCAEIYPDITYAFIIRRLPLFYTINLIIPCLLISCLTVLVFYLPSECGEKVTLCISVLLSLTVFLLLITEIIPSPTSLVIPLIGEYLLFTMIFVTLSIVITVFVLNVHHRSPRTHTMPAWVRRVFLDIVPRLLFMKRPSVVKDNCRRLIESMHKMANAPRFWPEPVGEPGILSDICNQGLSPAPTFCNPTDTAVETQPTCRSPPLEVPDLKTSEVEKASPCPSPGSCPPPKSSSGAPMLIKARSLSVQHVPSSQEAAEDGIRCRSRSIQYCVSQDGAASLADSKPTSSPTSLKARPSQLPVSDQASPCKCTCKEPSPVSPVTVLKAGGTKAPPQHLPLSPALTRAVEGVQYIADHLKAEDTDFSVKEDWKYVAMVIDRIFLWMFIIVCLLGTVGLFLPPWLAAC
T1 sequence (P12390 25-500): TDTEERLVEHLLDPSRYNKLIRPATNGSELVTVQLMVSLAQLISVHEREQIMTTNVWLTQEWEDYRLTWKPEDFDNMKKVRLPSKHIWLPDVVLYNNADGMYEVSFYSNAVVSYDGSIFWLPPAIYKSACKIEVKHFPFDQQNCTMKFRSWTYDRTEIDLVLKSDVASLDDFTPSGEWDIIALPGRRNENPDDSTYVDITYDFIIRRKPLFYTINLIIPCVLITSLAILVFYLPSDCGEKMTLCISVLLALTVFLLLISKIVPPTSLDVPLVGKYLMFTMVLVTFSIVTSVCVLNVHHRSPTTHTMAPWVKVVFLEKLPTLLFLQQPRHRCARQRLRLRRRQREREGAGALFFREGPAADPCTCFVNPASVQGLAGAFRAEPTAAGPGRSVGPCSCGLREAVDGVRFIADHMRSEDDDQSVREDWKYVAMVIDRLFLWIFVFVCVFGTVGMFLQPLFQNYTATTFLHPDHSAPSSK

As usually defined, the Ki is the dissociation constant of the complex between target and ligand, obtained from inhibition or displacement. One may read the IC50 as the concentration that gives 50% inhibition. The low end stands for higher potency, the high end for lower potency. For the compound `C(=C\[C@H]1CCNC1)/c1cncc(OC2CCOCC2)c1` [Compound A, (R)-3-((E)-2-(pyrrolidin-3-yl)vinyl)-5-(tetrahydropyran-4-yloxy)pyridine], the figures for the Ki in data set [1] and in [2] were 0.004 µM and 25 µM, respectively. Moreover, the “inhibition of binding of labelled ligand” value in data set [3] is 99%. In addition, the IC50 on hERG was 84 µM; at CYP1A2, greater than 20 µM; at CYP2C19, greater than 20 µM; against CYP2C9, greater than 20 µM; against CYP2D6 [4], greater than 20 µM; against CYP3A4 [5] it was greater than 20 µM. For the same compound, the “time-dependent inhibition of CYP3A4” value at CYP3A4 [6] is on record as “no evidence of time-dependent inhibition”. Besides, the “time-dependent inhibition of CYP2D6” value on CYP2D6 [7] was “no evidence of time-dependent inhibition”. Besides, the “time-dependent inhibition of CYP2B6” value at CYP2B6 is “no evidence of time-dependent inhibition”. The “renal clearance share of total clearance” value in [8] is given as “more than 50%”.
